Experimental data published in ChEMBL document CHEMBL5356959, “Bifunctional backbone modified squaramide dipeptides as amyloid beta (Aβ) aggregation inhibitors” (Bioorg Med Chem, 2024).
Activity calls are given as the source filed them. The calls are words filed in the database; no cut-off is given here.

Experiments:
N2a = experiment: Cytotoxicity against mouse Neuro2a cells assessed as reduction in cell viability at 50 uM incubated for 48 hrs by Alamar blue assay; format: toxicity, cell-based
[1] = molecular target: T1, Amyloid-beta precursor protein (Homo sapiens, UniProt P05067); experiment: Inhibition of amyloid-beta (unknown origin) aggregation at 25 uM at 1:10 compound:amyloidbeta ratio incubated for 24 hrs by ThT fluorescence assay
[2] = molecular target: T1, Amyloid-beta precursor protein; experiment: Inhibition of amyloid-beta (unknown origin) aggregation at 1:10 compound:amyloidbeta ratio incubated for 24 hrs by ThT fluorescence assay
[3] = molecular target: T1, Amyloid-beta precursor protein; experiment: Binding affinity to amyloid-beta (unknown origin) in Tris-HCL buffer assessed as conformational change at 10 uM at 1:1 molar ratio incubated for 24 hrs by circular dichroism analysis
[4] = Competitive binding affinity to Fe(III) assessed as metal chelating activity by measuring compound-Fe(III) complex formation incubated for 30 mins in the presence of zinc by UV-Visible spectrophotometric analysis
[5] = Competitive binding affinity to Fe(III) assessed as metal chelating activity by measuring compound-Fe(III) complex formation incubated for 30 mins in the presence of copper by UV-Visible spectrophotometric analysis
[6] = Competitive binding affinity to Fe(III) assessed as metal chelating activity by measuring compound-Fe(III) complex formation incubated for 30 mins in the presence of NiCl2 by UV-Visible spectrophotometric analysis
[7] = Competitive binding affinity to Fe(III) assessed as metal chelating activity by measuring compound-Fe(III) complex formation incubated for 30 mins in the presence of MnCl2 by UV-Visible spectrophotometric analysis
[8] = Competitive binding affinity to Fe(III) assessed as metal chelating activity by measuring compound-Fe(III) complex formation incubated for 30 mins in the presence of MgSO4.7H2O by UV-Visible spectrophotometric analysis
[9] = Competitive binding affinity to Fe(III) assessed as metal chelating activity by measuring compound-Fe(III) complex formation incubated for 30 mins in the presence of FeCl2 by UV-Visible spectrophotometric analysis
[10] = Competitive binding affinity to Fe(III) assessed as metal chelating activity by measuring compound-Fe(III) complex formation incubated for 30 mins in the presence of CaCl2 by UV-Visible spectrophotometric analysis
[11] = Metal chelating activity assessed as compound-Cu(II) complex formation by measuring hyperchromic shift at 1:1 molar ratio incubated for 30 mins by UV-Visible spectrophotometric analysis
[12] = Metal chelating activity assessed as compound-Zn(II) complex formation by measuring hyperchromic shift at 1:1 molar ratio incubated for 30 mins by UV-Visible spectrophotometric analysis
[13] = Metal chelating activity assessed as compound-Fe(III) complex formation by measuring hyperchromic shift at 1:1 molar ratio incubated for 30 mins by UV-Visible spectrophotometric analysis
[14] = Competitive binding affinity to Cu(II) assessed as metal chelating activity by measuring compound-Cu(II) complex formation incubated for 30 mins in the presence of CaCl2 by UV-vis spectrophotometric analysis
[15] = Competitive binding affinity to Cu(II) assessed as metal chelating activity by measuring compound-Cu(II) complex formation incubated for 30 mins in the presence of FeCl2 by UV-vis spectrophotometric analysis
[16] = Competitive binding affinity to Cu(II) assessed as metal chelating activity by measuring compound-Cu(II) complex formation incubated for 30 mins in the presence of MgSO4.7H2O by UV-vis spectrophotometric analysis
[17] = Competitive binding affinity to Cu(II) assessed as metal chelating activity by measuring compound-Cu(II) complex formation incubated for 30 mins in the presence of MnCl2 by UV-vis spectrophotometric analysis
[18] = Competitive binding affinity to Cu(II) assessed as metal chelating activity by measuring compound-Cu(II) complex formation incubated for 30 mins in the presence of NiCl2 by UV-vis spectrophotometric analysis
[19] = Competitive binding affinity to Cu(II) assessed as metal chelating activity by measuring compound-Cu(II) complex formation incubated for 30 mins in the presence of ZnSO4.7H2O by UV-vis spectrophotometric analysis
[20] = Competitive binding affinity to Zn(II) assessed as metal chelating activity by measuring compound-Zn(II) complex formation incubated for 30 mins in the presence of CaCl2 by UV-vis spectrophotometric analysis
[21] = Competitive binding affinity to Zn(II) assessed as metal chelating activity by measuring compound-Zn(II) complex formation incubated for 30 mins in the presence of FeCl2 by UV-vis spectrophotometric analysis
[22] = Competitive binding affinity to Zn(II) assessed as metal chelating activity by measuring compound-Zn(II) complex formation incubated for 30 mins in the presence of MgSO4.7H2O by UV-vis spectrophotometric analysis
[23] = Competitive binding affinity to Zn(II) assessed as metal chelating activity by measuring compound-Zn(II) complex formation incubated for 30 mins in the presence of MnCl2 by UV-vis spectrophotometric analysis
[24] = Competitive binding affinity to Zn(II) assessed as metal chelating activity by measuring compound-Zn(II) complex formation incubated for 30 mins in the presence of NiCl2 by UV-vis spectrophotometric analysis
[25] = Competitive binding affinity to Zn(II) assessed as metal chelating activity by measuring compound-Zn(II) complex formation incubated for 30 mins in the presence of copper by UV-vis spectrophotometric analysis
[26] = Antioxidant activity assessed as DPPH radical scavenging activity at 10 uM incubated under dark condition for 30 mins by absorbance based plate reader analysis; format: functional
[27] = molecular target: T1, Amyloid-beta precursor protein; experiment: Inhibition of Cu(II)-induced amyloid-beta (unknown origin) aggregation assessed as disaggregation at 10 uM preincubated with CuSO4.5H2O for 30 mins followed by compound addition and measured after 24 hrs by ThT fluorescence assay
[28] = Metal chelating activity assessed as compound-Cu(II) complex formation by measuring hyperchromic shift incubated for 30 mins by UV-Visible spectrophotometric analysis
[29] = Metal chelating activity assessed as compound-Zn(II) complex formation by measuring hyperchromic shift incubated for 30 mins by UV-Visible spectrophotometric analysis
[30] = Metal chelating activity assessed as compound-Fe(III) complex formation by measuring hyperchromic shift incubated for 30 mins by UV-Visible spectrophotometric analysis

T1 sequence (P05067 whole entry): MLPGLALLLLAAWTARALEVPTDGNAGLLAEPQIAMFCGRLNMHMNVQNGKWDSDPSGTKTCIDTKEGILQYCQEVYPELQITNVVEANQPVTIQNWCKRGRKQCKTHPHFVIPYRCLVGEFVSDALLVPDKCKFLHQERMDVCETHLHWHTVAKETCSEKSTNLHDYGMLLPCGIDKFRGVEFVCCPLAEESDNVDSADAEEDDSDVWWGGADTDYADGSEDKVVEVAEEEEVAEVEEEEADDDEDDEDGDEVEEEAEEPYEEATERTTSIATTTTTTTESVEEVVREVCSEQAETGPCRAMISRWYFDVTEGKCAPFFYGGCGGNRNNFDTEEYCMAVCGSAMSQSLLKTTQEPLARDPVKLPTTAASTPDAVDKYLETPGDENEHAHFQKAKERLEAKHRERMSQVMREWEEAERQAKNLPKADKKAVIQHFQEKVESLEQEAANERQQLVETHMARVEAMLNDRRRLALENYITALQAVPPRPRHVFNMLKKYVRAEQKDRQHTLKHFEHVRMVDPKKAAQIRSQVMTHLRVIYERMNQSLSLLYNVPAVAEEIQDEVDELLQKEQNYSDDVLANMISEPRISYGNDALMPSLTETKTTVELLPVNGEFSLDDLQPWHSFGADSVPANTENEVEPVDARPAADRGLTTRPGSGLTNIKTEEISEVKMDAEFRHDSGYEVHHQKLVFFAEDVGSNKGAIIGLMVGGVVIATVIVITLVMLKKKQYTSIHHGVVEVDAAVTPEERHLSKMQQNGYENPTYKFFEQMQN

## CC(C)(C)OC(=O)N[C@H](CNc1c(N[C@@H](CCCNC(=N)N)C(=O)O)c(=O)c1=O)Cc1ccccc1
N2a
  Activity: Non-Toxic

## CC(C)(C)OC(=O)N[C@H](CNc1c(N[C@@H](CC(N)=O)C(=O)O)c(=O)c1=O)Cc1ccccc1
N2a
  Activity: Non-Toxic
[1]
  inhibition: Active
[2]
  IC50: 17.5 µM

## CC(C)(C)OC(=O)N[C@H](CNc1c(N[C@@H](CC(=O)O)C(=O)O)c(=O)c1=O)Cc1ccccc1
N2a
  Activity: Non-Toxic

## CC(C)(C)OC(=O)N[C@H](CNc1c(N[C@@H](CS)C(=O)O)c(=O)c1=O)Cc1ccccc1
N2a
  Activity: Non-Toxic

## CC(C)C[C@H](Nc1c(NC[C@H](Cc2ccccc2)NC(=O)OC(C)(C)C)c(=O)c1=O)C(=O)O
N2a
  Activity: Non-Toxic

## C[C@H](O)[C@H](Nc1c(NC[C@H](Cc2ccccc2)NC(=O)OC(C)(C)C)c(=O)c1=O)C(=O)O
[3]
  Activity: Active
[4]
  Activity: Active
[5]
  Activity: Active
[6]
  Activity: Active
[7]
  Activity: Active
[8]
  Activity: Active
[9]
  Activity: Active
[10]
  Activity: Active
[11]
  Activity: Active
[12]
  Activity: Active
[13]
  Activity: Active
[14]
  Activity: Active
[15]
  Activity: Active
[16]
  Activity: Active
[17]
  Activity: Active
[18]
  Activity: Active
[19]
  Activity: Active
[20]
  Activity: Active
[21]
  Activity: Active
[22]
  Activity: Active
[23]
  Activity: Active
[24]
  Activity: Active
[25]
  Activity: Active
N2a
  Activity: Non-Toxic
[1]
  inhibition: Active
[2]
  IC50: 8.08 µM
[26]
  Activity: Active
[27]
  inhibition: Active

## C[C@H](Nc1c(NC[C@H](Cc2ccccc2)NC(=O)OC(C)(C)C)c(=O)c1=O)C(=O)O
N2a
  Activity: Non-Toxic

## CC[C@@H](C)[C@H](Nc1c(NC[C@H](Cc2ccccc2)NC(=O)OC(C)(C)C)c(=O)c1=O)C(=O)O
N2a
  Activity: Non-Toxic

## CC(C)(C)OC(=O)N[C@H](CN)Cc1ccccc1
[28]
  Activity: inactive
[29]
  Activity: inactive
[30]
  Activity: inactive

## CC(C)(C)OC(=O)N[C@H](CNc1c(N[C@@H](CCCCN)C(=O)O)c(=O)c1=O)Cc1ccccc1
N2a
  Activity: Non-Toxic

## COc1c(NC[C@H](Cc2ccccc2)NC(=O)OC(C)(C)C)c(=O)c1=O
[28]
  Activity: Active
[29]
  Activity: Active
[30]
  Activity: Active

## CC(C)(C)OC(=O)N[C@H](CNc1c(N[C@@H](Cc2ccccc2)C(=O)O)c(=O)c1=O)Cc1ccccc1
N2a
  Activity: Non-Toxic
[1]
  inhibition: Active
[2]
  IC50: 14.6 µM

## CC(C)(C)OC(=O)N[C@H](CNc1c(N[C@@H](CCC(N)=O)C(=O)O)c(=O)c1=O)Cc1ccccc1
N2a
  Activity: Non-Toxic

## CC(C)(C)OC(=O)N[C@H](CNc1c(N[C@@H](CCC(=O)O)C(=O)O)c(=O)c1=O)Cc1ccccc1
N2a
  Activity: Non-Toxic

## CC(C)(C)OC(=O)N[C@H](CNc1c(N[C@@H](Cc2ccc(O)cc2)C(=O)O)c(=O)c1=O)Cc1ccccc1
N2a
  Activity: Non-Toxic

## CC(C)[C@H](Nc1c(NC[C@H](Cc2ccccc2)NC(=O)OC(C)(C)C)c(=O)c1=O)C(=O)O
[11]
  Activity: inactive
[14]
  Activity: inactive
[15]
  Activity: inactive
[16]
  Activity: inactive
[17]
  Activity: inactive
[18]
  Activity: inactive
[19]
  Activity: inactive
[20]
  Activity: Active
[21]
  Activity: Active
[22]
  Activity: Active
[23]
  Activity: Active
[24]
  Activity: Active
[25]
  Activity: Active
N2a
  Activity: Non-Toxic
[1]
  inhibition: Active
[2]
  IC50: 7.71 µM
[26]
  Activity: Active
[27]
  inhibition: Active

## CC(C)(C)OC(=O)N[C@H](CNc1c(N2CCC[C@H]2C(=O)O)c(=O)c1=O)Cc1ccccc1
N2a
  Activity: Non-Toxic

## COc1c(OC)c(=O)c1=O
[28]
  Activity: Active
[29]
  Activity: Active
[30]
  Activity: Active

## CC(C)(C)OC(=O)N[C@H](CNc1c(NCC(=O)O)c(=O)c1=O)Cc1ccccc1
N2a
  Activity: Non-Toxic

## CC(C)(C)OC(=O)N[C@H](CNc1c(N[C@@H](Cc2c[nH]cn2)C(=O)O)c(=O)c1=O)Cc1ccccc1
N2a
  Activity: Non-Toxic

## CC(C)(C)OC(=O)N[C@H](CNc1c(N[C@@H](CO)C(=O)O)c(=O)c1=O)Cc1ccccc1
N2a
  Activity: Non-Toxic

## CSCC[C@H](Nc1c(NC[C@H](Cc2ccccc2)NC(=O)OC(C)(C)C)c(=O)c1=O)C(=O)O
N2a
  Activity: Non-Toxic

## CC(C)(C)OC(=O)N[C@H](CNc1c(N[C@@H](Cc2c[nH]c3ccccc23)C(=O)O)c(=O)c1=O)Cc1ccccc1
N2a
  Activity: Non-Toxic
